In ChEMBL document CHEMBL5727404, “Toll-like receptor 7 (TLR7) agonists having a heterobiaryl moiety, conjugates thereof, and methods and uses therefor” (2019):

Target: T1, Toll-like receptor 7 (Homo sapiens, UniProt Q9NYK1)
T1 sequence (Q9NYK1 whole entry): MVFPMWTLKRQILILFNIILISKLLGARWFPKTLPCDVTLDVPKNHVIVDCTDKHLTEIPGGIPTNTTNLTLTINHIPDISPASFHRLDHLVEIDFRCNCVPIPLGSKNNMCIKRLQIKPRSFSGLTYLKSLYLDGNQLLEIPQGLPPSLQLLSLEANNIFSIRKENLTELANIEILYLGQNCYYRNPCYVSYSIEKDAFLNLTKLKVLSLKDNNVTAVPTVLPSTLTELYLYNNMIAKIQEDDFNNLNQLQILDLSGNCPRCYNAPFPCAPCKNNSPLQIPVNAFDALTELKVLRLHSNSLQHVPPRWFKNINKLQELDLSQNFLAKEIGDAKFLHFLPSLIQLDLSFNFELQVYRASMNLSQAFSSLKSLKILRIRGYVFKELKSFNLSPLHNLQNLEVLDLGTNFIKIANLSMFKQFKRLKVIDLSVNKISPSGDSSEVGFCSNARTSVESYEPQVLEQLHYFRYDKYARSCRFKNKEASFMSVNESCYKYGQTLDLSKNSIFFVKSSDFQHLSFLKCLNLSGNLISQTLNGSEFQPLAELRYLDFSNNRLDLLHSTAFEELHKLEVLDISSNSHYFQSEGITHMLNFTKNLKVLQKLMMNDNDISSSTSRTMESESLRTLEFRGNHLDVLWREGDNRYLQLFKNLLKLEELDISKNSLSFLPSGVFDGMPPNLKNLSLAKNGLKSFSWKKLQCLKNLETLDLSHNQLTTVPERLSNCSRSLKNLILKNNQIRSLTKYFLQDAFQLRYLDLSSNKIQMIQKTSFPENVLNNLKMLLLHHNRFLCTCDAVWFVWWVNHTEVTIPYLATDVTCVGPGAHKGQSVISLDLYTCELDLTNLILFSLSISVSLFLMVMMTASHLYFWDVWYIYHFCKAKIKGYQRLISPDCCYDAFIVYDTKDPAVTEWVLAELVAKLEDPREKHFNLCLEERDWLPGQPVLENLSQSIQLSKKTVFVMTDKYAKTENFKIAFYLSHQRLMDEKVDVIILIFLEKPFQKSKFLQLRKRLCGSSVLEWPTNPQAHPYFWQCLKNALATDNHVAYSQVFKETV
Assay: HEK-Blue™ TLR7 cells were added to each well of a 384-well tissue-culture plate (15,000 cells per well) and incubated 16-18 h at 37° C., 5% CO2. Compounds (100 nl) were dispensed into wells containing the HEK-Blue™ TLR cells and the treated cells were incubated at 37° C., 5% CO2. After 18 h treatment ten microliters of freshly-prepared Quanti-Blue reagent (Invivogen) was added to each well, incubated for 30 min (37° C., 5% CO2) and SEAP levels measured using an Envision plate reader (OD=620 nm).

| Compound | EC50 |
| --- | --- |
| CCCCOc1nc(N)c2nc(O)n(Cc3ccc(-c4csc(CN)c4)nc3)c2n1 | 0.052 µM |
| CCCCOc1nc(N)c2nc(O)n(Cc3ccc(-c4csc(CN)c4)cc3)c2n1 | 0.059 µM |
